SMILES strings stand for the structures.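 Each compound was tested at five concentrations against cells in 96-well plates for 48 hours. GI50: concentration for 50% inhibition of growth.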 Calls of active or inactive are those of the source. No stated cut-off is given here; in the data, active = GI50 up to about 1.1 µM and inactive = higher.

Experimental findings from ChEMBL document CHEMBL1201862, “PubChem BioAssay data set” (2004) are described below.

Assay in all cases: NCI-60 cell line screen, 48 h
The subject of experiment [1] is SNB-19.
The subject of experiment [2] is SN12C.
Experiment [3] deals with HT-29.
Experiment [4] deals with OVCAR-8.
In experiment [5] the test system is UACC-257.
Experiment [6] has as its system UO-31.
Experiment [7] deals with DU-145.
The subject of experiment [8] is NCI/ADR-RES.
The subject of experiment [9] is UACC-62.
Experiment [10] relates to TK-10.
Experiment [11] relates to A498.
The subject of experiment [12] is U-251.
The subject of experiment [13] is HOP-62.
In experiment [14] the test system is SF-539.
Experiment [15] concerns OVCAR-5.
Experiment [16] deals with OVCAR-4.
Experiment [17] has as its system HL-60.
Experiment [18] concerns NCI-H460.

As for `COc1ccc2nc3cc(Cl)ccc3c(NCCCNCCCNc3c4ccc(Cl)cc4nc4ccc(OC)cc34)c2c1`, the GI50 is < 0.0179 µM (active) in [1]; < 0.01 µM (active) in experiment [2]; < 0.01 µM (active) in experiment [3]; < 0.01 µM (active) in [4]; 0.251 µM (active) in [5]; < 0.0236 µM (active) in experiment [6]. Moreover, the GI50 in [7] is 0.0373 µM (active); in [8], 0.581 µM (active); in experiment [9], 0.0196 µM (active); in experiment [10] it was 0.0741 µM (active); in experiment [11], 0.0541 µM (active); in experiment [12], 0.0137 µM (active). The GI50 in [13] was < 0.01 µM (active); in experiment [14] it was 0.0157 µM (active); in experiment [15], < 0.0224 µM (active); in experiment [16], < 0.01 µM (active); in [17] it was 0.0278 µM (active); in experiment [18], 0.0102 µM (active).
Consider `O=C(CCc1cc(O)cc(O)c1)NCCCNC(=O)CCc1cc(O)cc(O)c1`, for which the GI50 in experiment [1], in experiment [2], in experiment [3], in experiment [4], in experiment [5] and in [6] was > 100 µM (inactive) each time. The GI50 in experiment [7], in experiment [8], in experiment [9], in experiment [10], in experiment [11] and in experiment [12] was > 100 µM (inactive) throughout. For the same molecule, the GI50 in [13], in experiment [14], in [15] and in experiment [16] was > 100 µM (inactive) in each case.
Turning to `OC[C@@H](O)[C@H](O)[C@H](O)[C@@H](O)C1SCCCS1`, the GI50 in [1], in [2], in experiment [3], in [4], in experiment [5] and in experiment [6] was > 100 µM (inactive) throughout. Also, the GI50 in experiment [7], in experiment [8], in [9], in experiment [10], in experiment [11] and in [12] was > 100 µM (inactive) throughout. In addition, the GI50 in experiment [13], in experiment [14], in experiment [15], in experiment [16] and in experiment [18] was > 100 µM (inactive) each time.
As to `N=c1c2c(-c3ccccc3)c[nH]c2ncn1N`, the GI50 in experiment [1], in experiment [2], in [3], in [4], in experiment [5] and in experiment [6] was > 100 µM (inactive) throughout. Besides, the GI50 in [8], in experiment [9], in [10], in [11], in [12] and in experiment [13] was > 100 µM (inactive) in each case. Moreover, the GI50 in [14], in experiment [15], in [16] and in experiment [17] was > 100 µM (inactive) throughout.
Turning to `SCc1ccc(CS)s1`, the GI50 in [1], in experiment [2], in experiment [3], in experiment [4], in experiment [5] and in [6] was > 100 µM (inactive) each time. Moreover, the GI50 in [7], in [8], in experiment [9], in [10], in [12] and in experiment [13] was > 100 µM (inactive) throughout. Moreover, the GI50 in [14], in [15], in experiment [16], in experiment [17] and in [18] was > 100 µM (inactive) throughout.
Turning to `O=C(c1ccccc1)N1CCC(CC2(c3cc4ccccc4[nH]3)OCCO2)CC1`, the GI50 is 67.9 µM (inactive) in [1]; > 100 µM (inactive) in experiment [2]; 26.5 µM (inactive) in [3]; 58.6 µM (inactive) in [4]; 27.5 µM (inactive) in experiment [5]; 30.6 µM (inactive) in experiment [6]. Also, the GI50 was > 100 µM (inactive) in experiment [7]; > 100 µM (inactive) in experiment [8]; 19 µM (inactive) in experiment [9]; 28.3 µM (inactive) in experiment [10]; 21.4 µM (inactive) in experiment [11]; 34.8 µM (inactive) in experiment [12]. The GI50 is 58.1 µM (inactive) in [13]; 37.7 µM (inactive) in experiment [14]; 64 µM (inactive) in experiment [15]; 47.3 µM (inactive) in [16]; 35.9 µM (inactive) in [18].
For `C[C@]12CC[C@@H]3c4ccc(O)cc4CC[C@H]3[C@@H]1C/C(=C\c1ccc(C#N)cc1)C2=O`, the GI50 was 52.4 µM (inactive) in [1]; 68.4 µM (inactive) in experiment [2]; 24.9 µM (inactive) in [3]; 55.5 µM (inactive) in experiment [4]; 30.8 µM (inactive) in experiment [5]; 46.9 µM (inactive) in experiment [6]. The GI50 in [7] is 57.4 µM (inactive); in [8], 59.3 µM (inactive); in [9], 61.1 µM (inactive); in [10], 34.1 µM (inactive); in [11], > 100 µM (inactive); in experiment [12], 24.7 µM (inactive). Moreover, the GI50 is 40.4 µM (inactive) in experiment [13]; 36.5 µM (inactive) in experiment [14]; 71.8 µM (inactive) in [15]; 40.5 µM (inactive) in experiment [16]; 36.1 µM (inactive) in [18].
`C[C@H](C(=O)C12CC3CC(CC(C3)C1)C2)[C@H](O)c1ccccc1`: the GI50 is 61.1 µM (inactive) in experiment [1]; 19.5 µM (inactive) in [2]; 18.7 µM (inactive) in [3]; 33.5 µM (inactive) in experiment [4]; 29.9 µM (inactive) in [5]; 29 µM (inactive) in experiment [6]. The GI50 in experiment [9] is 28.4 µM (inactive); in experiment [10], 36.1 µM (inactive); in experiment [14], 33.3 µM (inactive); in [15], 17.5 µM (inactive); in experiment [16] it was 44 µM (inactive); in [17] it was 23.1 µM (inactive). For the same molecule, the GI50 in experiment [18] is 35.2 µM (inactive).
For the molecule `CC(=O)C(=[N+]=[N-])C(=O)N(C)CCC#N`, the GI50 in [1], in experiment [2], in experiment [3], in [4], in experiment [5] and in [6] was > 10 µM (inactive) in each case. Further, the GI50 in experiment [7] is > 10 µM (inactive); in experiment [9] it was 3.58 µM (inactive); in [10] it was > 10 µM (inactive); in [11], > 10 µM (inactive); in [12], > 10 µM (inactive); in experiment [13], > 10 µM (inactive). The GI50 in [14], in experiment [15], in [17] and in experiment [18] was > 10 µM (inactive) each time.
